Assays:
[1] = test system: normal human fibroblasts (NHDF) and stromal cells isolated from human normal bone marrow; experiment: Replicative lifespan (RLS) of normal cells in tissue culture; type: cell-based; conditions: normal fibroblasts and mesenchymal cells
Text: (§1) FIGS. 1A-1I provide graphs and images showing a new high throughput method for simultaneous detection of senescence associated SAβG activity and ATP in culture of normal pre-aged cells identified two potent anti-aging scaffolds. (A). General schema of HTS. (B). […] (C). Structures and corresponding tautameric forms of lead compounds. (D) Evaluation of possible genotoxic effect of experimental drugs in modified Ames test. 4-Nitroquinoline 1-oxide (4NQO) was used as a positive control. […] The general schema of RLS measurement in different cell types. (F) VA and N2N1 considerably extend RLS of normal human fibroblasts (NHDF) and stromal cells isolated from human normal bone marrow. (G). […] (I). Upper panel: Morphological appearance of NHDF at late passages with or without treatment. Lower panel: Cells were also fixed in para-formaldehyde and stained to detect SAβG.
The inventors developed a new high-throughput screening (HTS) method for identification of anti-aging drugs (FIG. 1). The novel method was specifically designed for simultaneous detection of β-galactosidase activity in cell lysate followed by ATP detection by standard luciferase based assay. […] Altogether, the procedure allowed a simultaneous quantifiable detection of senescence associated β-galactosidase (SAβG) activity and evaluation of ATP level as a sign of improved proliferative capacity or cytotoxicity. […]

cancer cell lines = experiment: Treatment of cancer cell lines; type: cell-based
fibroblasts = experiment: Gene expression analysis of fibroblasts (RNAseq); type: cell-based; conditions: RNAseq exome
HSC = experiment: Competitive repopulation assay, CD45.1/2 mouse model; type: in vivo; conditions: CD45.2 mice, one month in drinking water, ~2.0 mg/kg
Text: FIGS. 2A-2G provide graphs and images showing N2N1 and VA support HSC/progenitors populations under pressure of differentiation and tissue culture stress in vitro and in vivo. General schema of CFU (A) and LTC-IC assays (B). […] Representative result of three NBM is shown. (D) The morphology of cells at the end of 1st part of LTC-IC assay is shown. The total number of cells at this step of experiment was always larger in the samples treated with experimental drugs. (E) Treatment of mice with N2N1 promotes maintenance of normal HSC in vivo. Competitive repopulation assay performed on CD45.2 mice treated with N2N1. Summary of four animals, three hematopoietic tissues. […] Representative result of three patients is shown.
The potential positive impact of identified pro-survival catalysts on viability and propagation of HSC was evaluated in competitive repopulation assay based on CD45.1/2 mouse model, a “gold standard” for HSC performance.

normal fibroblasts = experiment: Telomere length in treated fibroblasts; type: cell-based
Text: Based on results obtained on tissue cultured cells (increased RLS) and an increase in the numbers of HSC surrogate cells (LTC-IC or CFU), the inventors set their future goal to develop a novel pharmacological treatment for AA patients and potentially for other BMF. They have examined the most prominent features of cellular aging: telomere shortening, mitochondrial dysfunction or decline in respiratory capacity and shift in intracellular redox balance toward more oxidized environment. […] The only persistent effect of VA was considerable reduction in global protein disulfide bonds (up to 30%) detected by Elman's reagent or direct labelling of reduced sulfhydryl groups with biotin-switch assay (FIG. 3A). That brought the reductive hypothesis to the inventors' attention. The redox potential is controlled by sophisticated set of diverse enzymes and this system is fed from generation of NADPH by multiple hydrogenases (FIG. 3B). Among them, the glucose-6-phosphate dehydrogenase (G6P) is most important, because it controls the rate limiting step of pentose phosphate pathway. The other important dehydrogenases are isocytrate dehydrogenases (cytoplasmic and mitochondrial, IDH1/2) and 6-phosphogluconate dehydrogenase (6PG). The next anti-oxidant cellular protection layer is thioredoxin and glutathione systems (FIG. 3B). The first one is composed of thioredoxin reductase (TrxR) and thioredoxin. […]

[2] = test system: bone marrow cells from aplastic anemia patients; experiment: Colony assay, aplastic anemia bone marrow; type: cell-based, human; conditions: tissue culture derived from aplastic anemia patients
Text: While performing a multidrug screen for the agents that could simultaneously decrease senescence and overcome proliferative block in pre-senescent mesenchymal cells, the inventors identified two promising lead compounds violuric acid (VA) and 1-naphthoquinone-2-monoxime (N2N1). […] In term of hematopoietic stem cells (HSC) these agents prolonged the availability of HSC in methylcellulose (replicative/serial re-plating) experiments, long-term culture initiating cell assays (LTC-IC) and increased the performance of HSC in a competitive repopulation assay, the CD45.1/2 model. Furthermore, the inventors observed colonies formation in methylcellulose colony assay, after application of these drugs to the mononucleocyte fraction of bone marrow isolated from the patients diagnosed with severe AA. […] These compounds belong to a family of redox catalysts with unique chemical structure that shares a combined electrophile-nucleophile potential, a feature that renders these molecules effective anti-aging treatment in various biological model systems.
FIGS. 2A-2G provide graphs and images showing N2N1 and VA support HSC/progenitors populations under pressure of differentiation and tissue culture stress in vitro and in vivo. General schema of CFU (A) and LTC-IC assays (B). […] Representative result of three NBM is shown. (D) The morphology of cells at the end of 1st part of LTC-IC assay is shown. […]

[3] = test system: fibroblasts derived from a patient diagnosed with Bloom syndrome; experiment: RLS of Bloom syndrome fibroblasts; type: cell-based, human
Text: as §1

## O=C1/C(=N/O)C=Cc2ccccc21 [N2N1, 1-naphthoquinone-2-monoxime]
[1]
  expansion above regular replicative life span: ~25 doublings
Cancer cell lines
  toxicity / proliferation: partially toxic
fibroblasts
  expression of stem cell markers: revealed the expression of some stem cell markers
HSC
  HSC number / repopulation capacity: increased number of HSC or/and increased repopulation capacity
Normal fibroblasts
  telomere length: maintenance of telomere length was observed
[2]
  colonies formation: promote colonies formation
[3]
  response of RLS to treatment: responded positively

## O=C1NC(=O)C(=NO)C(=O)N1 [VA, 2,4,5,6(1H,3H)-pyrimidine-tetrone 5-oxime]
[1]
  expansion above regular replicative life span: ~25 doublings
Cancer cell lines
  toxicity / proliferation: neither toxic nor pro-proliferative
fibroblasts
  expression of stem cell markers: revealed the expression of some stem cell markers
Normal fibroblasts
  telomere length: maintenance of telomere length was observed
[2]
  colonies formation: promote colonies formation
[3]
  response of RLS to treatment: responded positively
